Laboratory results taken from patent US20240166641A1, “HETEROCYCLES AND USES THEREOF” (Kumquat Biosciences Inc., priority 2021, published 2024).

Assays:
[1] = molecular target: T1, PTPN2 (Homo sapiens, UniProt P17706); experiment: Phosphatase activity assay (Bio-Biochem-DiFMUP), PTPN2; format: biochemical; conditions: DiFMUP substrate, room temperature
T1 sequence (P17706 1-415): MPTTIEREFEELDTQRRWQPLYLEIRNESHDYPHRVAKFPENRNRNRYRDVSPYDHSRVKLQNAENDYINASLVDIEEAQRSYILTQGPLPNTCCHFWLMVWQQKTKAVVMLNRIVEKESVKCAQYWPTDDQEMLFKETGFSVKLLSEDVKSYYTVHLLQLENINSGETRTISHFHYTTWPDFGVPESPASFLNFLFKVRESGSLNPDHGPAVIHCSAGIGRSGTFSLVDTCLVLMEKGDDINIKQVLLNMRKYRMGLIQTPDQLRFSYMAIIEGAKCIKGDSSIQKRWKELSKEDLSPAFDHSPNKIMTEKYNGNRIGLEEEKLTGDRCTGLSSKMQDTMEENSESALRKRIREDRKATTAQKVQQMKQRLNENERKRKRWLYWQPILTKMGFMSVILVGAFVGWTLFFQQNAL
Source text: (§1) The selectivity and potency of a small molecule PTPN2 inhibitor as provided herein (e.g., a derivative of Formula I, II, III, IV; or sub-formulae thereof) against one or more protein tyrosine phosphatase (PTP) enzymes, and specifically against PTPN2, can be assessed in various ways. The one or more PTP enzymes comprise Mycobacterium protein tyrosine phosphatase A (mPTPA), Mycobacterium protein tyrosine phosphatase B (mPTPB), PTPN1 (i.e., PTP1B), PTPN2 (i.e., TC-PTP), SHP-1, SHP-2, FAP-1, Meg2, HePTP, Laforin, VHX, VHR, LMWPTP, Cdcl4A, LAR, CD45, PTPRG, a fragment thereof, a variant thereof, and a combination thereof. Selectivity and potency of a small molecule PTPN2 inhibitor is evaluated using a PTP activity inhibition assay. The assay is performed using a buffer comprising 50 millimolar (mM) Bis-Tris (pH=6.3), 2 mM EDTA, and 5 mM N,N′-dimethyl-N,N′-bis(mercaptoacetyl)hydrazine (DMH). The assay is performed using a phosphated substrate, e.g., 10 mM fluorescein diphosphate (FDP) that is stored at −20° C. Alternatively or in addition to, the assay is performed using 10 mM DiFMUP as a phosphated substrate. Each PTP enzyme is diluted in an enzyme dilution buffer comprising 50 mM Bis-Tris (pH=6.3), 2 mM EDTA, 5 mM DMH, 20% (vol./vol.) glycerol, and 0.01% (vol./vol.) Triton X-100.
(§2) The assay is carried out at room temperature in 96 well plates. A reaction mixture of 170 microliter (μL) of the assay buffer comprising 10 μM FDP or DiFMIUP is added to each well. A 10 μL volume of (i) a compound disclosed herein (e.g., PTPN2 inhibitor) dissolved in DMSO at one of 10 concentrations from a serial dilution or (ii) DMSO alone for control is added to each well. The reaction is initiated by adding 20 μL of a PTP enzyme (e.g., PTPN2) that is diluted in the enzyme dilution buffer. The phosphatase activity of the PTP enzyme is assessed by monitoring appearance of a fluorescent product (e.g., fluorescein monophosphate (FMP) from FDP, or 6,8-difluoro-7-hydroxyl-4-coumarin (DiFMU) from DiFMUP) continuously for about 15 to 30 minutes, using the SpectraMax® Gemini™ XPS Microplate Spectrofluorometer (Molecular Devices®) with excitation of 440 nm and emission at 530 nm (cutoff filter at 525 nm) for FMP and excitation at 360 nm and emission at 450 nm (cutoff filter at 435 nm) for DiFMU. The rate (e.g., the initial rate) of FMP or DiFMU formation is plotted against the concentration of the small molecule PTPN2 inhibitor, and the data is fitted (e.g., using a 4-parameter equation) to determine the inflection point of the fit as the IC50 of the small molecule PTPN2 inhibitor for a specific enzyme. Table 6 summarizes the IC50 values of compounds disclosed herein against PTPN2 and PTPN1.

[2] = molecular target: T2, PTP1B (Homo sapiens, UniProt P18031); experiment: Phosphatase activity assay (Bio-Biochem-DiFMUP), PTP1B; format: biochemical; conditions: DiFMUP substrate, room temperature
T2 sequence (P18031 1-435): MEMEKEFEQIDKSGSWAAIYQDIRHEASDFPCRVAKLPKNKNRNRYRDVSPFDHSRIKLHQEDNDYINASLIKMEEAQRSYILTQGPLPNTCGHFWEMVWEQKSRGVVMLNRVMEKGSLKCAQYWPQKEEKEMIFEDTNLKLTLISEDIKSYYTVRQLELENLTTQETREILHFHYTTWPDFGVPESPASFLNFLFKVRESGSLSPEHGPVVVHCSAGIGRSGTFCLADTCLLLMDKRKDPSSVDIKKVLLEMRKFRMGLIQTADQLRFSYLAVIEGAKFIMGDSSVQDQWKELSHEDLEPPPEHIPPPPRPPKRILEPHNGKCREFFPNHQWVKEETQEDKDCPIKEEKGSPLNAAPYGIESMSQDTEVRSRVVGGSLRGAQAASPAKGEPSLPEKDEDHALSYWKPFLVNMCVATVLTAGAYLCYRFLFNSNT
Source text: as §1, §2

| SMILES | IC50 [1] [nM] | IC50 [2] [nM] |
| --- | --- | --- |
| Cn1c(=O)c(NCCC2CCCCC2)cc2cc(N3CC(=O)NS3(=O)=O)c(O)cc21 [Compound 141] | ≤ 1000 | ≤ 1000 |
| Cn1c(=O)c(N2CCCCC2)cc2cc(N3CC(=O)NS3(=O)=O)c(O)cc21 [Compound 169] | 1000 to 10000 | 1000 to 10000 |
| O=C1C=C(c2cc3cc(-c4cccnc4)cnc3cc2O)S(=O)(=O)N1 [Compound 115, 5-(7-hydroxy-3-(pyridin-3-yl)quinolin-6-yl)isothiazol-3(2H)-one 1,1-dioxide] | > 10000 | 1000 to 10000 |
| N#CCCCOc1ccc2cc(O)c(N3CC(=O)NS3(=O)=O)cc2n1 [Compound 175] | ≤ 1000 | ≤ 1000 |
| O=C1CN(c2c(O)cc3ccc(NCCc4ccccc4)nc3c2F)S(=O)(=O)N1 [Compound 125] | ≤ 1000 | ≤ 1000 |
| Cn1c(=O)c(O)cc2c(F)c(N3CC(=O)NS3(=O)=O)c(O)cc21 [Compound 184] | 1000 to 10000 | ≤ 1000 |
| O=C1CN(c2cc3nc(NCCc4ccccc4)ccc3cc2O)S(=O)(=O)N1 [Compound 118] | ≤ 1000 | ≤ 1000 |
| CC(C)CCN1Cc2cc(C3=CC(=O)NS3(=O)=O)c(O)cc2CC1=O [Compound 110] | 1000 to 10000 | 1000 to 10000 |
| Cn1c(=O)c(NCCN2CCOCC2)cc2cc(N3CC(=O)NS3(=O)=O)c(O)cc21 [Compound 127] | ≤ 1000 | ≤ 1000 |
| CCN1CCC(CNc2cc3cc(N4CC(=O)NS4(=O)=O)c(O)cc3n(C)c2=O)CC1 [Compound 171] | ≤ 1000 | ≤ 1000 |
| CC(C)CCN1Cc2cc(N3CC(=O)NS3(=O)=O)c(O)cc2CC1=O [Compound 119, 5-(6-hydroxy-2-isopentyl-3-oxo-1,2,3,4-tetrahydroisoquinolin-7-yl)-1,2,5-thiadiazolidin-3-one 1,1-dioxide] | ≤ 1000 | ≤ 1000 |
| Cn1c(=O)c(NCc2ccccc2)cc2cc(N3CC(=O)NS3(=O)=O)c(O)cc21 [Compound 177] | ≤ 1000 | ≤ 1000 |
| CC(C)CCNc1ccc2cc(O)c(C3=CC(=O)NS3(=O)=O)cc2n1 [Compound 106, 5-(6-hydroxy-2-(isopentylamino)quinolin-7-yl)isothiazol-3(2H)-one 1,1-dioxide] | 1000 to 10000 | ≤ 1000 |
| COc1cc2c(cc1N1CC(=O)NS1(=O)=O)C(=O)N(C)CC2 [Compound 101] | > 10000 | > 10000 |
| Cn1c(=O)c(NCCC2CCC(F)(F)CC2)cc2cc(N3CC(=O)NS3(=O)=O)c(O)cc21 [Compound 201] | ≤ 1000 | ≤ 1000 |
| Cn1c(=O)c(NCc2ccccc2)cc2c(F)c(N3CC(=O)NS3(=O)=O)c(O)cc21 [Compound 180] | ≤ 1000 | ≤ 1000 |
| CCN1CC(Nc2cc3cc(N4CC(=O)NS4(=O)=O)c(O)cc3n(C)c2=O)C1 [Compound 174] | 1000 to 10000 | ≤ 1000 |
| CC(C)CCOc1ccc2cc(O)c(N3CC(=O)NS3(=O)=O)cc2n1 [Compound 182] | ≤ 1000 | ≤ 1000 |
| CC(C)CCN1Cc2cc(N3CC(=O)NS3(=O)=O)c(O)cc2N(C)C1=O [Compound 116] | 1000 to 10000 | ≤ 1000 |
| COc1cc2c(F)c(N3CC(=O)NS3(=O)=O)c(O)cc2n(C)c1=O [Compound 146] | ≤ 1000 | ≤ 1000 |

| SMILES | IC50 [1] [nM] | IC50 [2] [nM] |
| --- | --- | --- |
| Cn1c(=O)c(NCCCC#N)cc2cc(N3CC(=O)NS3(=O)=O)c(O)cc21 [Compound 148] | ≤ 1000 | ≤ 1000 |
| COC(=O)c1cc2cc(N3CC(=O)NS3(=O)=O)c(OC)cc2s1 [Compound 102, methyl 5-(1,1-dioxido-4-oxo-1,2,5-thiadiazolidin-2-yl)-6-methoxybenzo[b]thiophene-2-carboxylate] | > 10000 | > 10000 |
| CC(C)CCNc1cnc2cc(O)c(N3CC(=O)NS3(=O)=O)cc2c1 [Compound 142, 5-(7-hydroxy-3-(isopentylamino)quinolin-6-yl)-1,2,5-thiadiazolidin-3-one 1,1-dioxide] | ≤ 1000 | ≤ 1000 |
| N#Cc1cccc(CCOc2ccc3cc(O)c(N4CC(=O)NS4(=O)=O)cc3n2)c1 [Compound 159] | ≤ 1000 | ≤ 1000 |
| Cn1c(=O)c(NCCc2ccccc2)cc2cc(N3CC(=O)NS3(=O)=O)c(O)cc21 [Compound 123, 5-(7-hydroxy-1-methyl-2-oxo-3-(phenethylamino)-1,2-dihydroquinolin-6-yl)-1,2,5-thiadiazolidin-3-one 1,1-dioxide] | ≤ 1000 | ≤ 1000 |
| CC(C)CC#Cc1cc2cc(N3CC(=O)NS3(=O)=O)c(O)cc2n(C)c1=O [Compound 181] | ≤ 1000 | ≤ 1000 |
| CC(C)CCNc1ccc2cc(O)c(N3CC(=O)NS3(=O)=O)cc2n1 [Compound 187] | > 10000 | > 10000 |
| CC(C)CN(C)Cc1cc(=O)n2cc(O)c(C3=CC(=O)NS3(=O)=O)cc2c1 [Compound 122] | > 10000 | > 10000 |
| O=C1CN(c2c(O)cc3sc(C(=O)NCCc4ccccc4)cc3c2F)S(=O)(=O)N1 [Compound 198] | ≤ 1000 | ≤ 1000 |
| Cn1c(=O)c(C#N)cc2cc(N3CC(=O)NS3(=O)=O)c(O)cc21 [Compound 161] | > 10000 | > 10000 |
| COc1ccc2cc(O)c(N3CC(=O)NS3(=O)=O)cc2n1 [Compound 124] | ≤ 1000 | ≤ 1000 |
| CC(C)CCN1Cc2cc(C3=CC(=O)NS3(=O)=O)c(O)cc2N(C)C1=O [Compound 108, 5-(7-hydroxy-3-isopentyl-1-methyl-2-oxo-1,2,3,4-tetrahydroquinazolin-6-yl)isothiazol-3(2H)-one 1,1-dioxide] | > 10000 | > 10000 |
| CC(C)CCNc1ccc2cc(O)c(C3CC(=O)NS3(=O)=O)cc2n1 (centres unmarked) [Compound 109] | > 10000 | 1000 to 10000 |
| CCN1CCC(Nc2cc3cc(N4CC(=O)NS4(=O)=O)c(O)cc3n(C)c2=O)CC1 [Compound 166] | 1000 to 10000 | 1000 to 10000 |
| C[C@H](Nc1cc2cc(N3CC(=O)NS3(=O)=O)c(O)cc2n(C)c1=O)c1ccccc1 [Compound 194] | 1000 to 10000 | ≤ 1000 |
| CC(C)OCCNc1ccc2cc(O)c(N3CC(=O)NS3(=O)=O)cc2n1 [Compound 138] | ≤ 1000 | ≤ 1000 |
| O=C1CN(c2cc3nc(OCCc4ccccc4)ccc3cc2O)S(=O)(=O)N1 [Compound 167] | ≤ 1000 | ≤ 1000 |
| CC(C)CCn1cnc2cc(O)c(N3CC(=O)NS3(=O)=O)cc2c1=O [Compound 196] | > 10000 | > 10000 |
| CC(C)OCCNc1cc2cc(N3CC(=O)NS3(=O)=O)c(O)cc2n(C)c1=O [Compound 195] | ≤ 1000 | ≤ 1000 |
| CC(C)CCNc1cc2cc(N3C(C)C(=O)NS3(=O)=O)c(O)cc2n(C)c1=O (centres unmarked) [Compound 203] | 1000 to 10000 | 1000 to 10000 |
